From patent US12336981B2, “Compounds and compositions for the inhibition of NAMPT” (Valo Health, Inc., priority 2010, dated 2025)
Read-outs that look alike come from different tables or passages of the source.

Columns and labels:
NAMPT = target: T1, NAMPT (Homo sapiens, UniProt P43490); test: Biochemical inhibition assay: NAMPT enzymatic reaction, NMN quantified by mass spectrometry; conditions: read-out: Biochem IC50
T1 construct: His tag; host or cells: E. coli
Outline: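 Inhibition of E. coli-expressed His-tagged human NAMPT, measured as NMN formation by mass spectrometry after a 30 min room-temperature reaction containing 1 μM NAM, 100 μM PRPP and 2.5 mM ATP.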

A2780 cells = test: In-vitro cell proliferation assay (SRB), A2780 cells; format: cell-based; conditions: Homo sapiens, A2780, 72 h, A2780 cells, 72 hours, read-out: A2780 IC50
Outline: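 Proliferation is assessed by sulforhodamine B staining following a 72-hour incubation with compound dilutions containing 0.1% DMSO.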

T1 sequence (P43490 whole entry): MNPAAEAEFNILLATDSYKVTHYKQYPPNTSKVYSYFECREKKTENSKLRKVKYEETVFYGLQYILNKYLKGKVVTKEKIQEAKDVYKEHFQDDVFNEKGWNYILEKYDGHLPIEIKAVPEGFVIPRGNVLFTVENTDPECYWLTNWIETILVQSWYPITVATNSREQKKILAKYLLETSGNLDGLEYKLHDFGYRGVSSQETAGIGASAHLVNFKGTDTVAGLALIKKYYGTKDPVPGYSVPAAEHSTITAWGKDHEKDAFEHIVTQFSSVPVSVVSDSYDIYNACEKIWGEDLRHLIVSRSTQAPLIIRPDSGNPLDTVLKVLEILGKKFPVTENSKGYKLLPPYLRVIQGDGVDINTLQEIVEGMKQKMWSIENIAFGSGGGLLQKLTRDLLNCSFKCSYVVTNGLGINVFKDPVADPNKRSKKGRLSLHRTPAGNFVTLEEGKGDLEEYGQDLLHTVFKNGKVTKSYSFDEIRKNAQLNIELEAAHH

Compound	IC50 (NAMPT; NAMPT enzymatic assay) [nM]	IC50 (A2780 cells; SRB) [nM]	IC50 (NAMPT; NAMPT enzymatic reaction) [nM]	IC50 (A2780 cells; SRB assay) [nM]
COc1ccc(C(C)(C)C)cc1S(=O)(=O)c1ccc(CNC(=O)c2ccc3nccn3c2)cc1 [N-({4-[(5-tert-butyl-2-methoxybenzene)sulfonyl]phenyl}methyl)imidazo[1,2-a]pyridine-6-carboxamide]	29	6.77	–	–
Cc1cccc(S(=O)(=O)c2ccc(CNC(=O)c3cc4ccncc4o3)cc2)c1C	–	8	51.6	–
COc1ccc2cc(S(=O)(=O)c3ccc(CNC(=O)c4cc5ccncc5s4)cc3)ccc2c1 [N-{[4-(6-methoxynaphthalene-2-sulfonyl)phenyl]methyl}thieno[2,3-c]pyridine-2-carboxamide]	1.5	3.3	–	–
Cc1cncc(S(=O)(=O)c2ccc(CNC(=O)c3cc4ccncc4o3)cc2)n1 [N-{[4-(6-methylpyrazine-2-sulfonyl)phenyl]methyl}furo[2,3-c]pyridine-2-carboxamide]	20.9	9.7	–	–
CCN(CC)C(=O)c1cc(Cl)cc(S(=O)(=O)c2ccc(CNC(=O)c3cc4ccncc4s3)cc2)c1	2.3	0.8	–	–
Cc1cc(-n2cccn2)ccc1S(=O)(=O)c1ccc(CNC(=O)c2cc3ccncc3s2)cc1	1.5	3.1	–	–
O=C(NCc1ccc(S(=O)(=O)c2cccc3c2OCO3)cc1)c1cnc2[nH]ncc2c1 [N-{[4-(2H-1,3-benzodioxole-4-sulfonyl)phenyl]methyl}-1H-pyrazolo[3,4-b]pyridine-5-carboxamide]	47	88.4	–	–
O=C(NCc1ccc(S(=O)(=O)c2cccc(N3CCOCC3)c2)cc1)c1cnc2[nH]ncc2c1	16.7	13	–	–
O=C(NCc1ccc(S(=O)(=O)c2cncc(C(F)(F)F)c2)cc1)c1ccc2nccn2c1 [N-({4-[5-(trifluoromethyl)pyridine-3-sulfonyl]phenyl}methyl)imidazo[1,2-a]pyridine-6-carboxamide]	9	1.3	–	–
CCCOc1ccc(S(=O)(=O)c2ccc(CNC(=O)c3cc4ccncc4s3)cc2)cc1F	–	8.1	3.7	–
O=C(NCc1ccc(S(=O)(=O)c2c(Cl)cccc2Cl)cc1)c1cc2cnccc2[nH]1	–	13.5	44.7	–
O=C(NCc1ccc(S(=O)(=O)c2cncc3ccccc23)cc1)c1ccc2nccn2c1 [N-{[4-(isoquinoline-4-sulfonyl)phenyl]methyl}imidazo[1,2-a]pyridine-6-carboxamide]	22.4	4.1	–	–
COc1cc(S(=O)(=O)c2ccc(CNC(=O)c3cnc4[nH]ncc4c3)cc2)ccc1C [N-({4-[(3-methoxy-4-methylbenzene)sulfonyl]phenyl}methyl)-1H-pyrazolo[3,4-b]pyridine-5-carboxamide]	–	3.4	3.6	–
CCOc1ccc(NS(=O)(=O)c2ccc(CNC(=O)c3cc4cnccc4[nH]3)cc2)c(F)c1 [N-({4-[(4-ethoxy-2-fluorophenyl)sulfamoyl]phenyl}methyl)-1H-pyrrolo[3,2-c]pyridine-2-carboxamide]	–	–	154	1600
COc1ccc(S(=O)(=O)c2ccc(CNC(=O)c3ccc4nccn4c3)cc2)cc1 [N-({4-[(4-methoxybenzene)sulfonyl]phenyl}methyl)imidazo[1,2-a]pyridine-6-carboxamide]	–	8.66	9.74	–
COc1ccc(F)cc1S(=O)(=O)c1ccc(CNC(=O)c2cc3ccncc3s2)cc1	–	0.8	2	–
O=C(NCc1ccc(S(=O)(=O)c2ccc(C(F)(F)F)c(Cl)c2)cc1)c1ccc2nccn2c1	2.9	1.2	–	–
O=C(NCc1ccc(S(=O)(=O)c2cc(F)cc(C(F)(F)F)c2)cc1)c1cnc2[nH]ncc2c1 [N-[(4-{[3-fluoro-5-(trifluoromethyl)benzene]sulfonyl}phenyl)methyl]-1H-pyrazolo[3,4-b]pyridine-5-carboxamide]	11.2	3.45	–	–
COc1ccc(F)cc1S(=O)(=O)c1ccc(CNC(=O)c2cc3ccncc3o2)cc1	–	12.4	2.2	–
CCCn1cc(S(=O)(=O)c2ccc(CNC(=O)c3cc4cnccc4[nH]3)cc2)cn1 [N-{[4-(1-propyl-1H-pyrazole-4-sulfonyl)phenyl]methyl}-1H-pyrrolo[3,2-c]pyridine-2-carboxamide]	14.9	5.9	–	–
O=C(NCc1ccc(S(=O)(=O)c2ccc(CO)cc2)cc1)c1cc2ccncc2o1	4.9	6.2	–	–
O=C(NCc1ccc(S(=O)(=O)c2ccccc2C(F)(F)F)cc1)c1ccc2nccn2c1 [N-[(4-{[2-(trifluoromethyl)benzene]sulfonyl}phenyl)methyl]imidazo[1,2-a]pyridine-6-carboxamide]	34.1	57.9	–	–
COc1c(C(F)(F)F)cccc1S(=O)(=O)c1ccc(CNC(=O)c2ccc3nccn3c2)cc1	21.9	14.8	–	–
O=C(NCc1ccc(S(=O)(=O)c2ccc(OC(F)(F)F)cc2)cc1)c1cnc2[nH]ncc2c1	34.6	22.3	–	–
